The target in one test is T1, hCXCR2 (Homo sapiens, UniProt P25025).
T1 construct: purchased Biosignal / Biosignal Packard; host or cells: CHO cells (membranes)
T1 sequence (P25025 1-360): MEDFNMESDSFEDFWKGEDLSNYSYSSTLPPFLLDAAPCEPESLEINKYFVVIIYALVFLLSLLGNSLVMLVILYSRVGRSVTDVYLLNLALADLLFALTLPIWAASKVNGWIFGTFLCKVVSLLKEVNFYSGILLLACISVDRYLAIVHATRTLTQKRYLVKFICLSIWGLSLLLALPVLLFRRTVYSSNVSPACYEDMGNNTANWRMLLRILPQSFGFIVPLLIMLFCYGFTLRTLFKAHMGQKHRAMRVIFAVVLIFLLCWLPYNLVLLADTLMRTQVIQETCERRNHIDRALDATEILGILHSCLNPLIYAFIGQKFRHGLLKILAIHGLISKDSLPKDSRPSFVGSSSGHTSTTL
Nature of the test: CXCR2 SPA assay ([125I]-IL-8 binding, hCXCR2-CHO membranes; incl. alternative 50 μl and 200 μl protocols). On the procedure:
For each well of a 96 well plate, a reaction mixture of 4 μg hCXCR2-CHO overexpressing membranes (Biosignal) and 200 μg/well WGA-SPA beads (Amersham) in 100 μl was prepared in CXCR2 assay buffer (25 mM HEPES, pH 7.4, 2 mM CaCl2, 1 mM MgCl2). A 0.4 nM stock of ligand, [^125I]-IL-8 (NEN), was prepared in the CXCR2 assay buffer. 20× stock solutions of test compounds were prepared in DMSO (Sigma). A 6× stock solution of GRO-α (R&D) was prepared in CXCR2 assay buffer. […]
For each 50 μl reaction, a working stock of 0.031 μg/μl hCXCR2-CHO over-expressing membranes with a specific activity of 0.4 pmol/mg (Biosignal Packard) and 2.5 μg/μl WGA-SPA beads (Perkin Elmer Life Sciences) was prepared in CXCR2 assay buffer (25 mM HEPES, pH 7.4, 2.0 mM CaCl2, 1 mM MgCl2) (Sigma). […] The assay plates were incubated for 2 hours before cpm/well were determined in a Microbeta Trilux counter (Perkin Elmer Life Sciences). IC50 values were quantified using nonlinear regression analysis in GraphPad Prism. […]
For each 200 μl reaction, a working stock of 0.02 μg/μl hCXCR2—CHO over-expressing membranes with a specific activity of 0.6 pmol/mg (Biosignal Packard) and 2 μg/μl WGA-SPA beads (Perkin Elmer Life Sciences) was prepared in CXCR2 assay buffer (25 mM HEPES, pH 7.4, 2.0 mM CaCl2, 1 mM MgCl2) (Sigma). […] IC50 values were quantified using nonlinear regression analysis in GraphPad Prism.

Another test addresses T2, hCXCR1 (Homo sapiens, UniProt P25024).
T2 construct: purchased Biosignal / Biosignal Packard; alternatively Euroscreen; host or cells: CHO cells (membranes)
T2 sequence (P25024 1-350): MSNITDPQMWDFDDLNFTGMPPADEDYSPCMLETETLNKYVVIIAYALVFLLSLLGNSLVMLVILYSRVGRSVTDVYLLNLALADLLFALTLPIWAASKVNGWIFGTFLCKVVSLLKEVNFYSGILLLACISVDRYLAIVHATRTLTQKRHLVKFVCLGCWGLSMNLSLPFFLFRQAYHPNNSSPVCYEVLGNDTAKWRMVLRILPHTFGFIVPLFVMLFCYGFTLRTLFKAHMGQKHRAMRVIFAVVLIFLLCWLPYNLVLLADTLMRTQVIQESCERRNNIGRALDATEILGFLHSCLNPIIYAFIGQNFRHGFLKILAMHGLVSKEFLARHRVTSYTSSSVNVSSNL
Nature of the test: CXCR1 SPA assay ([125I]-IL-8 binding, hCXCR1-CHO membranes; incl. alternative Biosignal Packard and Euroscreen protocols).

The next test addresses T3, CCR7 (Homo sapiens, UniProt P32248).
T3 construct: expressed in transfected cells; host or cells: Ba/F3 cells (membranes prepared in house)
T3 sequence (P32248 25-378): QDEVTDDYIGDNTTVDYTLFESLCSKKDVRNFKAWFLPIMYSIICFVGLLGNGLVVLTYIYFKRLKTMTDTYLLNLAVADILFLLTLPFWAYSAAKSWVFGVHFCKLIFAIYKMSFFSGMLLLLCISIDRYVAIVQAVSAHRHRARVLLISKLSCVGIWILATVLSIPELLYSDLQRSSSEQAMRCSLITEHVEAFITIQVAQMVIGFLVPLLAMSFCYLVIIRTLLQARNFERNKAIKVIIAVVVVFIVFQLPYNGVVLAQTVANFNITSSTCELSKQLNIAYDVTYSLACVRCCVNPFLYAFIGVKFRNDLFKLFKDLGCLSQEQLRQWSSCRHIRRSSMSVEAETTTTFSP
Nature of the test: CCR7 [35S]GTPγS exchange assay (SPA, Ba/F3-CCR7 membranes, 2 nM MIP-3). The test is classed as biochemical. On the procedure:
CCR7 Membrane Preparation.
Ba/F3-CCR7 membranes were prepared as previously described (Hipkin et al., J. Biol. Chem., 272, 1997, 13869-76). Cells were pelleted by centrifugation, incubated in homogenization buffer (10 mM Tris-HCl, 5 mM EDTA, 3 mM EGTA, pH 7.6) and 1 μM PMSF for 30 min. on ice. The cells were then lysed with a Dounce homogenizer using stirrer type RZR3 polytron homogenizer (Caframo, Wiarton, Ont.) with 12 strokes at 900 RPM. The intact cells and nuclei were removed by centrifugation at 500×g for 5 min. The cell membranes in the supernatant were then pelleted by centrifugation at 100,000×g for 30 min. The membranes were then resuspended in glygly buffer (20 mM glycylglycine, 1 mM MgCl2, 250 mM sucrose, pH 7.2), aliquoted, quick frozen and stored at −80° C.
CCR7 [^35S]GTPγS Exchange Assay.
The exchange of guanosine 5′-[γ-^35S]triphospate ([^35S]GTPγS, triethylammonium salt; specific activity=1250 Ci/mmol; NEN Boston, Mass.) was measured using a scintillation proximity assay (SPA) as previously described (Cox, et. al., Mol. Pharmacol., 59, 2001, 707-15). […] Membrane-bound [^35S]GTPγS was measured using a 1450 Microbeta Trilux counter (Wallac, Gaithersburg, Md.).

Procedure for hCXCR1: For each well of a 96 well plate, a reaction mixture of 10 μg hCXCR1-CHO overexpressing membranes (Biosignal) and 200 μg/well WGA-SPA beads (Amersham) in 100 μl was prepared in CXCR1 assay buffer (25 mM HEPES, pH 7.8, 2 mM CaCl2, 1 mM MgCl2, 125 mM NaCl, 0.1% BSA) (Sigma). A 0.4 nM stock of ligand, [125I]-IL-8 (NEN) was prepared in the CXCR1 assay buffer. 20× stock solutions of test compounds were prepared in DMSO (Sigma). […] The above solutions were added to a 96-well assay plate (PerkinElmer) as follows: 10 μl test compound or DMSO, 40 μl CXCR1 assay buffer or IL-8 stock, 100 μl of reaction mixture, 50 μl of ligand stock (Final [Ligand]=0.1 nM).
For each 50 μl reaction, a working stock of 0.25 μg/μl hCXCR1-CHO over-expressing membranes with a specific activity of 0.05 pmol/mg (Biosignal Packard) and 25 μg/μl WGA-SPA beads (Perkin Elmer Life Sciences) was prepared in CXCR1 assay buffer (25 mM HEPES, pH 7.8, 0.1 mM CaCl2, 1 mM MgCl2, 100 mM NaCl) (Sigma). This mixture was incubated on ice for 30 minutes and then centrifuged at 2500 rpm for 5 minutes. The beads and membranes were resuspended in CXCR1 assay buffer to the same concentrations as in the original mixture. […] The assay plates were incubated for 4 hours before cpm/well were determined in a Microbeta Trilux counter (Perkin Elmer Life Sciences). IC50 values were quantified using nonlinear regression analysis in GraphPad Prism. […]

As usually defined, the Ki is a measure of affinity in units of concentration, obtained from inhibition or displacement. `CC[C@@H](Nc1nsnc1Nc1cccc(C(=O)N(C)C)c1O)c1cc(C(C)C)co1` [Example 1]: the Ki was 28 nM on hCXCR2 and 808 nM on hCXCR1.
By EC50 is commonly meant the midpoint of the concentration-response curve. At CCR7, `Cc1ccc([C@H](Nc2nsnc2Nc2cccc(C(=O)N(C)C)c2O)C(C)C)o1` [Example 3] showed an EC50 of 880 nM.
Consider `Cc1ccc([C@H](Nc2nsnc2Nc2cccc(C(=O)N(C)C)c2O)C(C)(C)C)o1` [Example 6], for which the Ki at hCXCR2 worked out at 14 nM. This compound also registered an EC50 on CCR7 of 22 nM.

The record behind these values is patent US7338968B2, “Thiadiazoles AS CXC- and CC- chemokine receptor ligands” (Schering Corporation, priority 2003, dated 2008).
